# Data reported in patent US5773424A, “Treatment of toxoplasmosis” (priority 1994, dated 1998).
# Entries after “also recorded” stand apart in the source; their conditions may differ. Where two headings read alike, the source gives them in different places.
# Experiments:
# [1] = tested on: Toxoplasma gondii grown in human fibroblasts; assay: Incorporation of radiolabeled uracil (parasite survival); format: cell-based; conditions: for activity at 5 µM / activity at 10 µM / activity at 25 µM / activity at 50 µM: Toxoplasma gondii, Fibroblast, [5,6-3H]uracil incorporation, read-out: percent survival of Toxoplasma gondii grown in human fibroblasts
# Description: Incorporation of Radiolabeled Uracil. […] Uptake and incorporation of radiolabeled uracil into nucleic acids of T. gondii were carried out, at least in triplicates, in tissue culture, using monolayers of human foreskin fibroblasts infected with T. gondii. The fibroblasts were cultured in no more than 30 passages in Dulbecco's modified Eagle medium, containing 100 units/mL penicillin G and 100 μg/mL streptomycin sulfate, and 10% FBS, pH 7.2. Briefly, confluent cells (4-5 day incubation) were cultured for 24 hours in the 24-well flat bottom microtiterplates (~5×10^5 /1 mL/well) and incubated at 37° C. in 5% CO2, 95% air to allow the cells to attach. The medium was then removed and the cells were infected with isolated T. gondii in medium with 3% FBS (1 parasite/cell). After 1 hour incubation, the cultures were washed with media with 10% FBS to remove extracellular parasites. FBS was maintained at a final concentration of 10%. […] After an additional 18 hours incubation, the medium was replaced with 1 mL drug free media containing […] (2 μCi/mL) and incubated for another 6 hours, after which the media was removed. The fibroblasts were released from the wells by trypsinization with the addition of 200 μL trypsin/EDTA (2.5×) to each well. After 10 minutes incubation, 1 mL of ice cold 10% trichloroacetic acid (TCA) was added to each well. The plates were then placed on a shaker to insure the detachment of the cells. The suspended contents of each well were filtered through GF/A 2.4 cm glass microfiber filters (Whatman, Hillsboro, Oreg.), which were prewashed each with 1 mL double distilled H2 O and dried. After filtration, the filters were washed with 10 mL methanol, left to dry, and then placed in scintillation vials containing 5 mL of Econo-Safe scintillation fluor (Research Products International Corp., Mount Prospect, Ill.), and radioactivity was counted using an LS5801 Beckman scintillation counter.
# [2] = tested on: Toxoplasma gondii grown in human fibroblasts; assay: Plaque formation in human fibroblasts; format: cell-based; conditions: control (0 μM) 21 ± 3.5
# From the text: To investigate the effect of metabolizing NBMPR on the survival of T. gondii, the number and size of plaque formation by T. gondii on human fibroblasts was investigated. NBMPR decreased the number and size of toxoplasma in human fibroblasts (Table 13).
# [3] = Toxicity of compounds, MTT assay; format: cell-based, human; conditions: human, foreskin fibroblasts
# Description: (§1) Toxicity of compounds. Toxicity of the different doses of the various analogues were performed at least in triplicates, using a modification of the Microculture Tetrazolium (MTT) assay and uninfected monolayers of human foreskin fibroblasts. Briefly, confluent cells were incubated for at least 24 hours in the 96-well flat bottom microtiterplates (~10^5 /200 μL/well) and incubated at 37° C. in 5% CO2, 95% air to allow the cells to attach. The medium was then replaced with 200 μL of fresh medium. […] The cultures were then incubated for 48 hours, after which 50 μL of sterile MTT solution (2 mg/1 mL PBS) was added to each well. MTT solution was sterilized by filtration through 0.22 μm filters (Costar, Cambridge, Mass.). After 4 hours incubation, the medium was removed and 100 μL of dimethylsulfoxide (DMSO) was added to each well and the plates were shaken gently for 2-3 minutes to dissolve the formed formazan crystals. The absorbance was measured at 540 nm, using a computerized microtiterplate reader (Themomax, Molecular Division)
# [4] = tested on: extracts from different strains of Toxoplasma; assay: Conversion of NBMPR to NBMPR-P in the presence of ATP or PRPP by extracts of different strains; format: biochemical, Toxoplasma gondii
# Description: Maintenance of T. gondii. The wild type RH, the adenosine kinase deficient mutant ara-A^R (R), and the phosphoribosyltransferase deficient mutants (HGPRT^- and Tnx^R-1) strains of T. gondii were propagated by intraperitoneal passage in female CD1 mice (20-25 g). Mice were injected intraperitoneally (i.p.) with an inoculum (10^6 cells) of T. gondii contained in 0.2 ml of sterile phosphate buffered saline (PBS), pH 7.2, and were sacrificed after 2-3 days by inhalation of ether. The parasites were harvested from the peritoneal cavity by injection, aspiration and reinjection of 3-5 mL of PBS (2-3 times). The peritoneal fluid was examined microscopically to determine the concentration of T. gondii and to ascertain the extent of contamination by host cells.
# Enzyme assay. […] Incubation was carried out at 37° C.
# Phosphoribosyltransferase activity was measured by following the formation of [^3 H] NMMPR-P from [^3 H] NBMPR and 5-phosphoribosyl-1-pyrophosphate (PRPP). The standard reaction mixtures contained 50 mM Tris-Cl (pH 7.4), 10 μM [^3 H] NBMPR (55 Ci/mol), 4 mM PRibPP, 20 mM MgCl2, 50 mM KCI, and 50 μl of enzyme extract (4-8 μg of protein) in a final volume of 100 μl. Reactions were incubated at 37° C. and terminated in boiling water bath for 2 minutes. Precipitated proteins were removed by centrifugation. A 10 μl aliquot of the resulting supernatant was spotted on cellulose thin layer chromatography plates which were developed with 5% dibasic potassium phosphate. The average Rf values were as follows: NBMPR, 0.28; NBMP, 0.16; NBMPR-P, 0.44. The radioactivity was quantified using a Berthold TLC Linear Analyzer (Wallac, Inc., Gaithersburg, Md.). All assays were run under conditions in which velocity was linear with respect to time and amount of enzyme extract. Enzyme velocity was calculated by multiplying the fraction of nucleotide formed from nucleoside by the amount of nucleoside in the assay divided by the incubation time. Specific activity was estimated by dividing enzyme velocity by the amount of protein in the assay.
# extracts of mouse spleen = conditions: spleen cytosol extract, 50 µM
# Description: (§2) Preparation of extracts. Extracts of T. gondii were prepared by homogenizing parasites or tissues in ice cold (3:1, v/w) 50 mM Tris-Cl buffer (pH 7.4) containing 1 mM EDTA, 1 mM dithiothreitol with a polytron homogenizer (Brinkmann, Westbury, N.Y.) and the homogenates were centrifuged at 105,000×g for 1 hour at 4° C. The supernatant fluids (cytosol) were collected and used as the enzyme source.
# (§3) Conversion assays. To measure the percent conversion of NBMPR to NBMPR-P and nucleobase (NBMP) by extracts of Toxoplasma gondii and mouse spleen, 50 mM Tris-Cl (pH 7.4), 5 mM MgCl2, 2.5 mM ATP, 5 mM creatine phosphate, creatine phosphokinase, 50 μM [^3 H-(G)] NBMPR (1.95 μCi/nmol), and 10 μl of cytosol extract were reacted in a final volume of 20 μl and incubated at 37° C. Reaction was initiated by addition of extract and terminated by boiling for 3 minutes. In a second reaction, 25 mM KCN was added to the reaction mixture.
# (§4) The plates for the assays of NBMPR were developed in n-butanol/ethyl acetate/NH4 /methanol (49:28:28:21, v/v/v/v). The Rf values were: NBMPR, 0.76; NBMPR-P, 0.50; NBMP, 0.89. The amounts of radioactivity in the substrate (nucleoside) and product (nucleobase and nucleotides) were calculated on a percentage basis using a Berthold LB-284 Automatic TLC-Linear Analyzer.
# [5] = tested on: extracts of Toxoplasma gondii; conditions: 50 µM; for Percent conversion of NBMPR to NBMP: t. gondii extract; for Percent conversion of NBMPR to NBMPR-P / Percent conversion of NBMPR to nucleobase (NBMP): toxoplasma gondii
# Description: as §2, §3, §4
# [6] = tested on: Toxoplasma gondii RH strain tachyzoites; assay: Chemotherapy of Toxoplasma-infected mice; format: in vivo
# Description: Chemotherapy of Toxoplasma-Infected Mice. Female CD-1 mice, approximately 22 g (Charles River Laboratories, Wilmington, Mass.), were infected with 200 RH strain tachyzoites/mouse by i.p. injection. The treatment group received 100 mg/kg NBMPR-P i.p. injections every 8 hours on Days 0, 2, 4 and 5, in proportion of 0.1 ml/10 g. Mice were maintained under controlled temperature (25° C.) and light (12/12 hours, light/dark), food and water ad libitum, and survival was monitored daily.
# Each mouse was infected with 200 tachyzoites and the treatment group received 100 mg/kg NBMPR-P i.p. injections every 8 hours on Days 0, 2, 4 and 5 in proportion of 0.1 ml/10 g. The survivorship of the treated mice can be improved by manipulation of the dose and regimen of NBMPR.
# [7] = tested on: uninfected human foreskin fibroblasts; assay: Toxicity of compounds, MTT assay; format: cell-based
# Description: as §1
# [8] = survivors/total, 100 mg/kg i.p. every 8 hours on Days 0, 2, 4 and 5
structure (smiles),measurement,setting,value
"O=[N+]([O-])c1ccc(CSc2ncnc3c2ncn3[C@@H]2O[C@H](CO)[C@@H](O)[C@H]2O)cc1 [Compound 21, 6-(p-Nitrobenzyl)mercaptopurine riboside (NBMPR)]",activity at 5 µM,[1],74.3%
same,activity at 10 µM,[1],55.5%
same,activity at 25 µM,[1],23.1%
same,activity at 50 µM,[1],6.7%
same,Number of Plaques,[2]; NBMPR 33 μM,23 ± 0.7
same,Number of Plaques,[2]; NBMPR 100 μM,3 ± 1.4
same,"viability at 48 h, 5 µM",[3],98.8%
same,"viability at 48 h, 10 µM",[3],97.1%
same,"viability at 48 h, 25 µM",[3],96.3%
same,"viability at 48 h, 50 µM",[3],95.4%
same,Percent conversion of NBMPR to NBMPR-P,"[4]; strain Ara-A^R, +ATP",0%
same,Percent conversion of NBMPR to NBMPR-P,"[4]; strain Ara-A^R, +PRPP",3.8 ± 0.2%
same,Percent conversion of NBMPR to NBMPR-P,"[4]; strain HGPRT^-, +ATP",2.6 ± 1.3%
same,Percent conversion of NBMPR to NBMPR-P,"[4]; strain HGPRT^-, +PRPP",0%
same,Percent conversion of NBMPR to NBMPR-P,"[4]; strain RH, +ATP",0.7 ± 0.2%
same,Percent conversion of NBMPR to NBMPR-P,"[4]; strain RH, +PRPP",4.3 ± 0.3%
same,Percent conversion of NBMPR to NBMPR-P,"[4]; strain Thx^R-1, +ATP",2.0 ± 0.6%
same,Percent conversion of NBMPR to NBMPR-P,"[4]; strain Thx^R-1, +PRPP",0%
same,Percent conversion of NBMPR to NBMPR-P,extracts of mouse spleen; 0.25 h,0%
same,Percent conversion of NBMPR to nucleobase (NBMP),extracts of mouse spleen; 0.25 h,0%
same,Percent conversion of NBMPR to NBMPR-P,extracts of mouse spleen; 0.5 h,0%
same,Percent conversion of NBMPR to nucleobase (NBMP),extracts of mouse spleen; 0.5 h,0%
same,Percent conversion of NBMPR to NBMPR-P,extracts of mouse spleen; 1 h,0%
same,Percent conversion of NBMPR to nucleobase (NBMP),extracts of mouse spleen; 1 h,0%
same,Percent conversion of NBMPR to NBMPR-P,extracts of mouse spleen; 2 h,0%
same,Percent conversion of NBMPR to nucleobase (NBMP),extracts of mouse spleen; 2 h,0%
same,Percent conversion of NBMPR to NBMPR-P,extracts of mouse spleen; 4 h,0%
same,Percent conversion of NBMPR to nucleobase (NBMP),extracts of mouse spleen; 4 h,0%
same,Percent conversion of NBMPR to NBMP,[5]; 0.25 h,0.9 ± 0.3%
same,Percent conversion of NBMPR to NBMP,[5]; 0.5 h,2.8 ± 3.8%
same,Percent conversion of NBMPR to NBMP,[5]; 1 h,4.0 ± 1.3%
same,Percent conversion of NBMPR to NBMP,[5]; 2 h,9.5 ± 1.3%
same,Percent conversion of NBMPR to NBMP,[5]; 4 h,14.3 ± 3.3%
same,Percent conversion of NBMPR to NBMPR-P,"[5]; cytosol extract with kcn, 0.25 h",0.5 ± 0.1%
same,Percent conversion of NBMPR to NBMPR-P,"[5]; cytosol extract with kcn, 0.5 h",1.1 ± 0.1%
same,Percent conversion of NBMPR to NBMPR-P,"[5]; cytosol extract with kcn, 1 h",3.7 ± 2.5%
same,Percent conversion of NBMPR to NBMPR-P,"[5]; cytosol extract with kcn, 2 h",5.8 ± 0.7%
same,Percent conversion of NBMPR to NBMPR-P,"[5]; cytosol extract with kcn, 4 h",11.8 ± 4.8%
same,Percent conversion of NBMPR to NBMPR-P,"[5]; cytosol extract, 0.25 h",2.1 ± 0.5%
same,Percent conversion of NBMPR to nucleobase (NBMP),"[5]; cytosol extract, 0.25 h",8.0 ± 0.4%
same,Percent conversion of NBMPR to NBMPR-P,"[5]; cytosol extract, 0.5 h",3.2 ± 0.4%
same,Percent conversion of NBMPR to nucleobase (NBMP),"[5]; cytosol extract, 0.5 h",7.8 ± 3.7%
same,Percent conversion of NBMPR to NBMPR-P,"[5]; cytosol extract, 1 h",7.8 ± 1.5%
same,Percent conversion of NBMPR to nucleobase (NBMP),"[5]; cytosol extract, 1 h",14.8 ± 1.2%
same,Percent conversion of NBMPR to NBMPR-P,"[5]; cytosol extract, 2 h",9.4 ± 1.0%
same,Percent conversion of NBMPR to nucleobase (NBMP),"[5]; cytosol extract, 2 h",9.4 ± 2.8%
same,Percent conversion of NBMPR to NBMPR-P,"[5]; cytosol extract, 4 h",15.1 ± 4.4%
same,Percent conversion of NBMPR to nucleobase (NBMP),"[5]; cytosol extract, 4 h",10.4 ± 6.2%
"O=[N+]([O-])c1ccc(CSc2ncnc3c2ncn3[C@@H]2O[C@H](COP(=O)(O)O)[C@@H](O)[C@H]2O)cc1 [NBMPR-P, 6-[4-nitrobenzylthio]-9-β-D-ribofuranosyl purine 5'-monophosphate]",activity at 5 µM,[1],75.3%
same,activity at 10 µM,[1],53.3%
same,activity at 25 µM,[1],21.4%
same,activity at 50 µM,[1],10.2%
same,"Effect on T. gondii grown in human fibroblasts, in words",[1]; in vitro,inhibited; also recorded: kill T. gondii grown in human fibroblasts in a dose dependent manner; also recorded: effectively eliminate T. gondii parasites
same,life span of infected mice,[6]; increased from 6 days without treatment,8 days
same,Survival Day 7,[6]; [8],3/3
same,Survival Day 8,[6]; [8],2/3
same,Survival Day 9,[6]; [8],0/3
same,Survival Day 6,"[6]; survivors/total, 100 mg/kg i.p. every 8 hours on Days 0, 2, 4 and 5, untreated 0/3",3/3
same,"Effect on host (mammalian) cells, in words",[7]; doses up to 100 μM,did not affect host cells; also recorded: without affecting mammalian cells
same,"Toxicity to host cells (human fibroblasts), in words",[7]; therapeutic doses (5-50 μM tested),no significant toxic effect
same,"viability at 48 h, 5 µM","[3]; 5 μM, MTT, 48 hours, read-out: percent survival of uninfected human fibroblasts",103%
same,"viability at 48 h, 10 µM","[3]; 10 μM, MTT, 48 hours, read-out: percent survival of uninfected human fibroblasts",94.6%
same,"viability at 48 h, 25 µM","[3]; 25 μM, MTT, 48 hours, read-out: percent survival of uninfected human fibroblasts",93.6%
same,"viability at 48 h, 50 µM","[3]; 50 μM, MTT, 48 hours, read-out: percent survival of uninfected human fibroblasts",96.1%
